# Measurements: ChEMBL document CHEMBL3870306, “Selenoureido-iminosugars: A new family of multitarget drugs” (Eur J Med Chem, 2016)
# Legend:
# Aspergillus oryzae = assay: Inhibition of Aspergillus oryzae beta-galactosidase at 0.5 mM using o-orp-nitrophenyl-glycopyranoside as substrate measured for 120 sec relative to control
# [1] = Competitive inhibition of almond beta-glucosidase using o-orp-nitrophenyl-glycopyranoside as substrate by Lineweaver-Burk plot method; set-up: species or system Prunus dulcis
# [2] = Inhibition of Bakers yeast alpha-glucosidase using o-orp-nitrophenyl-glycopyranoside as substrate by Lineweaver-Burk plot method; set-up: species or system Saccharomyces cerevisiae
# [3] = target: Alpha-galactosidase (Coffea arabica) (UniProt Q42656); assay: Inhibition of green coffee beans alpha-galactosidase at 0.5 mM using o-orp-nitrophenyl-glycopyranoside as substrate measured for 120 sec relative to control
# Escherichia coli = assay: Inhibition of Escherichia coli beta-galactosidase at 0.5 mM using o-orp-nitrophenyl-glycopyranoside as substrate measured for 120 sec relative to control
# Helix pomatia = assay: Inhibition of Helix-pomatia beta-mannosidase at 0.5 mM using o-orp-nitrophenyl-glycopyranoside as substrate measured every 30 sec for 3 mins relative to control
# Acetylcholinesterase [4] = target: T1, Acetylcholinesterase (Electrophorus electricus, UniProt O42275); assay: Mixed-type inhibition of electric eel acetylcholinesterase assessed as enzyme-substrate-inhibitor complex by Lineweaver-Burk plot method
# Acetylcholinesterase [5] = target: T1, Acetylcholinesterase; assay: Mixed-type inhibition of electric eel acetylcholinesterase assessed as enzyme-inhibitor complex by Lineweaver-Burk plot method
# [6] = Antiproliferative activity against human A549 cells after 48 hrs by sulforhodamine B assay; type: functional; settings: A549, 48 h
# [7] = Antiproliferative activity against human HBL100 cells after 48 hrs by sulforhodamine B assay; type: functional; settings: HBL-100, 48 h
# [8] = Antiproliferative activity against human HeLa cells after 48 hrs by sulforhodamine B assay; type: functional
# [9] = Antiproliferative activity against human SW1573 cells after 48 hrs by sulforhodamine B assay; type: functional; settings: SW1573, 48 h
# [10] = Antiproliferative activity against human T47D cells after 48 hrs by sulforhodamine B assay; type: functional
# [11] = Antiproliferative activity against human WiDr cells after 48 hrs by sulforhodamine B assay; type: functional
# Prunus dulcis = assay: Inhibition of almond beta-glucosidase at 500 uM using o-orp-nitrophenyl-glycopyranoside as substrate measured for 120 sec relative to control
# Saccharomyces cerevisiae = assay: Inhibition of Bakers yeast alpha-glucosidase at 500 uM using o-orp-nitrophenyl-glycopyranoside as substrate measured for 120 sec relative to control
# [12] = target: T2, Alpha-mannosidase (Canavalia ensiformis) (UniProt C0HJB3); assay: Inhibition of jack bean alpha-mannosidase at 0.5 mM using o-orp-nitrophenyl-glycopyranoside as substrate measured every 30 sec for 3 mins relative to control
# T2 sequence (whole entry): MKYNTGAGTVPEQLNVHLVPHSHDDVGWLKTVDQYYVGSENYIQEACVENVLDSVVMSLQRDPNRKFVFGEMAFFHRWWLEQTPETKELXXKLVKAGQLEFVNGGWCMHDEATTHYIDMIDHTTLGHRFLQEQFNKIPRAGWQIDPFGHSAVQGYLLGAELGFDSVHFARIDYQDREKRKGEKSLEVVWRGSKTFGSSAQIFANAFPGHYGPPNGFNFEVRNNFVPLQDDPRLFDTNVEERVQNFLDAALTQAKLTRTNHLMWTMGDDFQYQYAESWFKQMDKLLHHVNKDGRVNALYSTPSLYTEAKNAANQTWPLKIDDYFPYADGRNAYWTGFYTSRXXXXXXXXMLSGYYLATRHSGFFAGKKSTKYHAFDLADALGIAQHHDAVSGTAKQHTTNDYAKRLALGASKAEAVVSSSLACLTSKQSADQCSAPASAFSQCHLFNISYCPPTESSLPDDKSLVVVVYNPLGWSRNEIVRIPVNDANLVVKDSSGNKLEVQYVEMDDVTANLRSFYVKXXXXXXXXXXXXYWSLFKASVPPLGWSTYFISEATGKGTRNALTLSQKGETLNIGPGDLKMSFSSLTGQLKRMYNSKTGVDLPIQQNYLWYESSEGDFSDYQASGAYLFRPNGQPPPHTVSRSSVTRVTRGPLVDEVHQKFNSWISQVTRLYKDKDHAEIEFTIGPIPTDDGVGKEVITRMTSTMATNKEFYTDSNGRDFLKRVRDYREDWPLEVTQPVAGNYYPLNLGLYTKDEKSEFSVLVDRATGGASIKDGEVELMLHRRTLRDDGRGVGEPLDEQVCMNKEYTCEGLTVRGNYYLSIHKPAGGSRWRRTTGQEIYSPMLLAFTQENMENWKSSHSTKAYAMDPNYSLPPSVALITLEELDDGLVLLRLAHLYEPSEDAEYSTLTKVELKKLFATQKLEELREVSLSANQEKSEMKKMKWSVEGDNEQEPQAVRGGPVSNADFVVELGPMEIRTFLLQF
# [13] = target: Acetylcholinesterase (Electrophorus electricus) (UniProt O42275); assay: Inhibition of electric eel acetylcholinesterase at 500 uM assessed as thep-nitrophenolate formation measured for 120 sec relative to control
# Alpha-mannosidase [14] = target: T3, Alpha-mannosidase (Canavalia ensiformis, UniProt C0HJB3); assay: Inhibition of jack bean alpha-mannosidase using o-orp-nitrophenyl-glycopyranoside as substrate by Lineweaver-Burk plot method
# T3 sequence (C0HJB3 whole entry): T2 sequence (whole entry)
# [15] = Glutathione peroxidase like activity assessed as hydrogen peroxide reduction by measuring compound Km measured for 180 sec in prescence of varying levels of Phsh by Hanes-Woof plot method
# [16] = Glutathione peroxidase like activity assessed as hydrogen peroxide reduction by measuring compound Vmax measured for 180 sec in prescence of varying levels of Phsh by Hanes-Woof plot method
# [17] = Glutathione peroxidase like activity assessed as hydrogen peroxide reduction by measuring compound Kcat measured for 180 sec in prescence of varying levels of Phsh by Hanes-Woof plot method
# [18] = Glutathione peroxidase like activity assessed as hydrogen peroxide reduction by measuring Kcat to Kuncat ratio measured for 180 sec in prescence of varying levels of Phsh by Hanes-Woof plot method
# [19] = Glutathione peroxidase like activity assessed as hydrogen peroxide reduction by measuring reaction rate at 0.1 mM measured for 180 sec in presence of PhSH relative to control
# [20] = Glutathione peroxidase like activity assessed as hydrogen peroxide reduction by measuring reaction rate at 0.1 mM measured for 180 sec in presence of PhSH relative to (PhSe)2
# [21] = Inhibition of almond beta-glucosidase using p-Nitrophenyl beta-D-glucopyranoside as substrate; set-up: species or system Prunus dulcis
# [22] = Inhibition of Bakers yeast alpha-glucosidase using p-Nitrophenyl alpha-D-glucopyranoside as substrate; set-up: species or system Saccharomyces cerevisiae
# [23] = Selectivity ratio of Ki for Bakers yeast alpha-glucosidase to Ki for almond beta-glucosidase
# Alpha-mannosidase [24] = target: T3, Alpha-mannosidase; assay: Mixed-type inhibition of jack bean alpha-mannosidase assessed as enzyme-inhibitor complex using o-orp-nitrophenyl-glycopyranoside as substrate by Lineweaver-Burk plot method
# Alpha-mannosidase [25] = target: T3, Alpha-mannosidase; assay: Mixed-type inhibition of jack bean alpha-mannosidase assessed as enzyme-substrate-inhibitor complex using o-orp-nitrophenyl-glycopyranoside as substrate by Lineweaver-Burk plot method
# Alpha-galactosidase (Coffea arabica), sequence (Q42656 16-378 limits assumed): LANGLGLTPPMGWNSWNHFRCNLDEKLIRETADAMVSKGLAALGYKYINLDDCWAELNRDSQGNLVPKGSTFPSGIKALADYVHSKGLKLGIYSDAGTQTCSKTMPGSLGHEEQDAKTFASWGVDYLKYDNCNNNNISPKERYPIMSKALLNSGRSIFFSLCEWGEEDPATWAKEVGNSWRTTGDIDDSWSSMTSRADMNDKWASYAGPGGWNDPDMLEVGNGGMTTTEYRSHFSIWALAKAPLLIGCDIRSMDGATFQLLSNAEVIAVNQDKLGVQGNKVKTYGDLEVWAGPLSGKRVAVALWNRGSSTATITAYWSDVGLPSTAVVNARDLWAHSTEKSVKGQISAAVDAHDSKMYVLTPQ
# T1 sequence (O42275 whole entry): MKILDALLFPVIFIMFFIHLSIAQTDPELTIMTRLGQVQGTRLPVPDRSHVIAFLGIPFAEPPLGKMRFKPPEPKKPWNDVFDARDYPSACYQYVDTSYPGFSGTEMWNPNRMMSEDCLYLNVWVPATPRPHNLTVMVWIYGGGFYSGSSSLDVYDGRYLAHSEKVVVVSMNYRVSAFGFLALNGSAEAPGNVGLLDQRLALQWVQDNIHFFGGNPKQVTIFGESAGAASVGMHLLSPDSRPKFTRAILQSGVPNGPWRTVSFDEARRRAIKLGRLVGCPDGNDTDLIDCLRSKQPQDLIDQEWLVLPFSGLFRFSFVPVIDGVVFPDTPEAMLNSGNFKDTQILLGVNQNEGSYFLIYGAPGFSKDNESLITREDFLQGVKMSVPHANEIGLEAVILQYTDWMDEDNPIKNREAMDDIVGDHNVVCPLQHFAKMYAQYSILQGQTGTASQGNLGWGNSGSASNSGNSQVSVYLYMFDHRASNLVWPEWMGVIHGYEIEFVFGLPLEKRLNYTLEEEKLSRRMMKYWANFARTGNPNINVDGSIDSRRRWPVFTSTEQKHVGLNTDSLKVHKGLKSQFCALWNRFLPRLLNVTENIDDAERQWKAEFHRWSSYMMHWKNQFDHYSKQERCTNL
# Acetylcholinesterase (Electrophorus electricus), sequence (O42275 24-633 limits assumed): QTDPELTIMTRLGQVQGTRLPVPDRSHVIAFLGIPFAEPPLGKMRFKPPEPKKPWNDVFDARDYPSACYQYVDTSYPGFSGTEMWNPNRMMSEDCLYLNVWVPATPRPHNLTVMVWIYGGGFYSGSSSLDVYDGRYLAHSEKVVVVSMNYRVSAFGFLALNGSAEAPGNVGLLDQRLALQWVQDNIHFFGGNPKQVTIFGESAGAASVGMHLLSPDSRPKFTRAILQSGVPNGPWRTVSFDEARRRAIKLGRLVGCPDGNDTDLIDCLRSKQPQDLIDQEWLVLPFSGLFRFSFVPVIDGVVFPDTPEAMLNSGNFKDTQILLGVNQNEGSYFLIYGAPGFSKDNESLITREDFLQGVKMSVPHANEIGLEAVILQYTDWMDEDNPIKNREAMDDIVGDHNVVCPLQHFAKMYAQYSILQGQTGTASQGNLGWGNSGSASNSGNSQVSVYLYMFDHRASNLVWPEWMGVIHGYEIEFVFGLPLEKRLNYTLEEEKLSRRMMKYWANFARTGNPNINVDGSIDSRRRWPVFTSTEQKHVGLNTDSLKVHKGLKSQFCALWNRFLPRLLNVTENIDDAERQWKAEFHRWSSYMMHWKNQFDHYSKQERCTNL
Compound,inhibition (Aspergillus oryzae),Ki [1],Ki [2],inhibition [3],inhibition (Escherichia coli),inhibition (Helix pomatia),Ki (Acetylcholinesterase [4]),Ki (Acetylcholinesterase [5]),GI50 [6],GI50 [7],GI50 [8],GI50 [9],GI50 [10],GI50 [11],inhibition (Prunus dulcis),inhibition (Saccharomyces cerevisiae),inhibition [12],inhibition [13],Km [15],Vmax [16],other results
Cc1ccc(NC(=[Se])NCCCCCN2C[C@H](O)[C@@H](O)[C@H](O)[C@H]2CO)cc1,20%,3.7 µM,35 µM,2%,31%,16%,16.9 µM,105 µM,45 µM,76 µM,75 µM,79 µM,68 µM,97 µM,> 50%,> 50%,46%,> 50%,,,
COc1ccc(NC(=[Se])NCCCCCN2C[C@H](O)[C@@H](O)[C@H](O)[C@H]2CO)cc1,29%,5.5 µM,36 µM,20%,15%,7%,58.8 µM,83.1 µM,42 µM,42 µM,82 µM,46 µM,58 µM,> 100 µM,> 50%,> 50%,> 50%,> 50%,410 µM,211 µM/min,Ki (Alpha-mannosidase [14]): 510 µM; kcat [17]: 0.035 s⁻¹; Ratio [18]: 640
O=c1c2ccccc2[se]n1-c1ccccc1,,,,,,,,,,,,,,,,,,,,,fold change (FC) [19]: 0.6
c1ccc(COC[C@H]2NC[C@H](OCc3ccccc3)[C@@H](OCc3ccccc3)[C@@H]2OCc2ccccc2)cc1,,,,,,,,,,,,,,,,,,,,,fold change (FC) [19]: 23.6 to 46.1; fold change (FC) [20]: 18
OC[C@H]1NC[C@H](O)[C@@H](O)[C@@H]1O [DUVOGLUSTAT],,,,,,,,,,,,,,,,,,,,,Ki [21]: 47 µM; Ki [22]: 25 µM
c1ccc([Se][Se]c2ccccc2)cc1,,,,,,,,,,,,,,,,,,,1110 µM,27.3 µM/min,fold change (FC) [19]: 2.5; kcat [17]: 0.0045 s⁻¹; Ratio [18]: 82
OC[C@@H]1[C@@H](O)[C@H](O)[C@@H](O)CN1CCCCCNC(=[Se])Nc1ccc(Br)cc1,42%,1.6 µM,30.7 µM,7%,12%,18%,11.2 µM,5.8 µM,7 µM,7.6 µM,27 µM,24 µM,12 µM,21 µM,> 50%,> 50%,> 50%,> 50%,330 µM,96.4 µM/min,Ratio Ki [23]: < 36; Ki (Alpha-mannosidase [24]): 390 µM; Ki (Alpha-mannosidase [25]): 290 µM; kcat [17]: 0.016 s⁻¹; Ratio [18]: 292
